Consider 4 molecules from PMC4014597 (PLoS ONE, 2014).

The structures appear in SMILES notation.

The target in assay [1] is T1, human G9a-like protein (GLP) (Homo sapiens, UniProt Q9H9B1).
T1 construct: catalytic SET domain (residues 734-1235; pXC758) were purified as described; made in house
T1 sequence (Q9H9B1 765-1266): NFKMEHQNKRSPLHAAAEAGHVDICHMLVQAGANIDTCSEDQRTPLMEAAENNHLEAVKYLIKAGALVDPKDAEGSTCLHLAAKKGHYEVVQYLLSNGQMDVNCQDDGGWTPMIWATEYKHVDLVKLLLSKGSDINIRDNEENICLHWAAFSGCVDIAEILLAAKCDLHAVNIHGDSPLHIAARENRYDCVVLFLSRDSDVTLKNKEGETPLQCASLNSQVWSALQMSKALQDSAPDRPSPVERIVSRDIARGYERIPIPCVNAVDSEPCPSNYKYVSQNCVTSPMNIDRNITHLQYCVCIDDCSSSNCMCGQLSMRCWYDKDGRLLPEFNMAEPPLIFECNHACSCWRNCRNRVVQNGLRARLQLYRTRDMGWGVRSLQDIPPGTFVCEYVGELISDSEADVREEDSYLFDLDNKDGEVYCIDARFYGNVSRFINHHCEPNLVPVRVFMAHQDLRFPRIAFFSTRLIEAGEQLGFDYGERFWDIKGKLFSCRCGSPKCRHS
Nature of the assay: GLP assay (histone methylation inhibition). The class given is biochemical. To be noted: 8 μM inhibitor; read-out: Percent of GLP inhibition. As for the experimental part:
GLP Assay. Recombinant human G9a-like protein (GLP) C-terminal fragment containing both the ankyrin repeats and catalytic SET domain (residues 734-1235; pXC758) were purified as described. For histone methylation inhibition, the assay was performed in 20 μL reaction containing 4.6 mM [methyl-^3H]-AdoMet, 50 μg/mL histone from calf thymus (SIGMA), 10 μg/mL (0.17 μM) GLP, 100 mM KCl, 5 mM (DTT) and 50 mM Tris-HCl pH 8.5. GLP was pre-incubated with AdoMet and 8 µM inhibitors for 5 min at 30 °C before the addition of the histone substrate. After incubation (5 min), the reaction was terminated by the addition of 20% trichloroacetic acid (TCA, Fisher Scientific). The reaction mixture was spotted on GF/A paper circles (Whatman), washed three times with 3 mL of 10% TCA and once with 3 mL of ethanol. The dried circles were subjected to liquid-scintillation counting with Cytoscint scintillant.

Another assay relates to U-937 cells. Nature of the assay: Cell viability by trypan blue exclusion, U-937. The class given is cell-based, human. To be noted: U-937, 48 h; for IC50: Homo sapiens, read-out: IC50 (mean ± SD) cell viability U-937. As to the method:
U-937 and RAJI cell lines were purchased from Deutsche Sammlung für Mikroorganismen und Zellkulturen (DSZM). Cells were maintained in RPMI 1640 (Lonza) supplemented with 10% fetal calf serum (Lonza) and 1% antibiotic–antimycotic (Lonza). Cells were treated with compounds at the indicated concentrations in exponential growth phase. Proliferation and viability were assessed by trypan blue exclusion analysis at the indicated time points.

Assay [2] deals with CMV-luc construct in KG-1 cells. Description: CMV-luc assay (luciferase re-expression from methylated CMV promoter). The class given is cell-based. To be noted: 24 h.
The target of a further assay is T2, Human G9a (Homo sapiens, UniProt Q96KQ7).
T2 sequence (Q96KQ7 786-1210 limits assumed): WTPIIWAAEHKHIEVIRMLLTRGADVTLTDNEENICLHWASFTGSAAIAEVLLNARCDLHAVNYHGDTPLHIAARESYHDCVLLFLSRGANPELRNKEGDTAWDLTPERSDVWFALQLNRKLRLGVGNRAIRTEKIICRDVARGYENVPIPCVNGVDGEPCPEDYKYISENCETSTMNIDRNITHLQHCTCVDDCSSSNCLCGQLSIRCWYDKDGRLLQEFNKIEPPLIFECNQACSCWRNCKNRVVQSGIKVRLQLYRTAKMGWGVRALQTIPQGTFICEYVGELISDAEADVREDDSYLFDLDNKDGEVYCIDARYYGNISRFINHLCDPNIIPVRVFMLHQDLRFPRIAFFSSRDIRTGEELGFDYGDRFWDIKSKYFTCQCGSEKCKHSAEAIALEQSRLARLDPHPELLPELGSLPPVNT
Nature of the assay: G9a assay (3H-AdoMet filter-binding). Format: biochemical. To be noted: for IC50: 10-dose IC50 mode, 2-fold serial dilution starting at 400 µM. As for the experimental part:
The reaction buffer was 50 mM Tris-HCl, pH 8.5, 50 mM NaCl, 5 mM MgCl2, 1 mM dithiothreitol (DTT), 1 mM PMSF, and 1% DMSO. Standard substrate concentrations were 5 µM biotinylated H3 (1–21) peptide (AnaSpec) substrate and 0.1 mM AdoMet. For control compound IC50 determinations, the test compounds were diluted in DMSO and then added to the enzyme/substrate mixture in nanoliter amounts by using an acoustic technology (Echo 500; Lab-cyte). The reaction was initiated by the addition of ^3H-AdoMet, and incubated at 30°C for 1 h. The reaction was detected by a filter-binding method. Data analysis was performed using Graph Pad Prism software for curve fits, and GraFit (Erithacus) for global fit of kinetic studies.

The target of a further assay is T3, human DNMT1 (hDNMT1) (Homo sapiens, UniProt P26358).
T3 construct: His; made in house
Nature of the assay: DNMT1 assay (radioactive Flashplate methylation assay). Format: biochemical. To be noted: for inhibition at 100 µM: 100 µM compound, read-out: % inhibition ± SD hDNMT1. As for the experimental part: His-DNMT1 (182 kDa, human) was cloned, expressed and purified as described by Lee et al.. The DNMT1 assay was performed according to Gros et al.. Briefly, the reaction was started by addition of 90 nM of DNMT1 on a mix containing the tested compound (up to 1% DMSO), 1 µM of a AdoMet/[methyl-^3H]-AdoMet mix in a ratio of 3-to-1 (isotopic dilution 1*:3) and 0.3 µM of biotinylated DNA duplex in 10 µL final volume. The reaction was incubated at 37°C for 2 h in reaction buffer (20 mM HEPES pH 7.2, 1 mM EDTA, 50 mM KCl, 25 µg/mL BSA). 8 µL are then transferred into a streptavidin-coated Flashplate PLUS (PerkinElmer) containing 190 µL of 20 µM AdoHcy (Sigma-Aldrich) in 50 mM Tris-HCl pH 7.4. The Flashplate was agitated at room temperature for 1 h, washed three times with 200 µL of 0.05% Tween-20 in 50 mM Tris-HCl pH 7.4 and read in 200 µL of 50 mM Tris-HCl pH 7.4 on TopCount NXT (PerkinElmer). Percentages of inhibition were calculated with the same formula as in DNMT3A assay.

T3 sequence (P26358 whole entry): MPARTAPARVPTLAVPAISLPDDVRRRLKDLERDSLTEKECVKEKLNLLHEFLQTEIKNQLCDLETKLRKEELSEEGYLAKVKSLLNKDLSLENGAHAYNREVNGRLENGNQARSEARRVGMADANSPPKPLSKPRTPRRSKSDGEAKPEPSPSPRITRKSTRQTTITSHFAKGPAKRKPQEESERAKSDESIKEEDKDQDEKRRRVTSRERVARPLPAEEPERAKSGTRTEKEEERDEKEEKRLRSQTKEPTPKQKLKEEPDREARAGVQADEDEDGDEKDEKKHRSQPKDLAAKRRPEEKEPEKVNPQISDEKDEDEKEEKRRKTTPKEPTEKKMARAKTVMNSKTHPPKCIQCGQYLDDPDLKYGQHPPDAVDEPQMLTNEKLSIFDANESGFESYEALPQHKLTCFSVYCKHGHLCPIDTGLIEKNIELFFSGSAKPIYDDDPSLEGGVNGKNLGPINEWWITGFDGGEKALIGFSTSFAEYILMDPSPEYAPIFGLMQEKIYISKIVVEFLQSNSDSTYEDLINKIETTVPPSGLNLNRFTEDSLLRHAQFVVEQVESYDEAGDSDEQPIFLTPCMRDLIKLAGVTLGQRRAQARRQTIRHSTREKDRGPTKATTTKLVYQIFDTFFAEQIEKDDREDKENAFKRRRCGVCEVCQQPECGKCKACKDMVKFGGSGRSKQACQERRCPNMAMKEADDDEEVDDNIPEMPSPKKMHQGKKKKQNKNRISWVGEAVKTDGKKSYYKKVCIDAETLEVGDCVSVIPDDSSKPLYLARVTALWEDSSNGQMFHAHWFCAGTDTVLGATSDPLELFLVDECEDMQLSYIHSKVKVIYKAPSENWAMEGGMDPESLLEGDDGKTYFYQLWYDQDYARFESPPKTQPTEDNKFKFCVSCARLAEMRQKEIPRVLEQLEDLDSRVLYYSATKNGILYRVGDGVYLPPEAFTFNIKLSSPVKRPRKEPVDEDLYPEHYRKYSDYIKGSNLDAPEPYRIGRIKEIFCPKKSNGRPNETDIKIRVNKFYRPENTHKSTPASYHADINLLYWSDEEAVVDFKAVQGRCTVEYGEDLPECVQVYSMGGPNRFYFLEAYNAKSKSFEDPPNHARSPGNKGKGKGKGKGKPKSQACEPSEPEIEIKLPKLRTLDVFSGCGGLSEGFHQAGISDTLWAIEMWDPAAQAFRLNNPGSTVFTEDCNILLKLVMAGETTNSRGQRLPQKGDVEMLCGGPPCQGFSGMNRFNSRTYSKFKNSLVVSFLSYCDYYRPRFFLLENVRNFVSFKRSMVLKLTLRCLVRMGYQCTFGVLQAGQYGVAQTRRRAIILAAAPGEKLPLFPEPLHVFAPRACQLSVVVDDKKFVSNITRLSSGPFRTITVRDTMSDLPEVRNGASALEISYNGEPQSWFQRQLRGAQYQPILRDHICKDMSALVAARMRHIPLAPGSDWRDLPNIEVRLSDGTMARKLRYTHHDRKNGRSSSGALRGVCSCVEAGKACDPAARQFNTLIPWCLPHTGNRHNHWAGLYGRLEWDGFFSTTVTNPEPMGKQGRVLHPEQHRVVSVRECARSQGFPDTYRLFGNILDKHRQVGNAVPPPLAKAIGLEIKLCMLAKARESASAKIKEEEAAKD

In general, inhibition refers to the drop in the measured response relative to a control, in per cent. By IC50 is commonly meant the concentration that inhibits the measured activity by half. Regarding `CN1CCCN(c2nc(NC3CCN(Cc4ccccc4)CC3)c3ccccc3n2)CC1` [Compound 4], the inhibition at 8 µM in assay [1] came to 0%. In the assay on U-937 cells, the IC50 turned out to be 16.6 ± 3.8 µM. For the same molecule, the “fold-induction of the luciferase signal (CMV-luc)” value (shortened to “fold-induction”) in assay [2] (10 µM) is listed as 2.8 fold. Moreover, the “fold-induction” value in assay [2] (25 µM) was determined as 12.5 fold. The “fold-induction” value in assay [2] (50 µM) was “ineffective”. For the same molecule, at Human G9a, the inhibition at 0.78 µM turned out to be 0%, the inhibition at 1.56 µM was 0%, the inhibition at 3.1 µM is 1.9% and the inhibition at 6.2 µM was 0%. On Human G9a, this molecule showed an inhibition at 25 µM of 0%, an inhibition at 50 µM of 7.9%, an inhibition at 100 µM of 21.8% and an inhibition at 200 µM of 16.4%. On Human G9a, this molecule gave an inhibition at 400 µM of 23.5% and an IC50 of over 400 µM. Moreover, the inhibition at 100 µM at human DNMT1 (hDNMT1) turned out to be 0%.

The EC50 is the concentration giving half of the maximal effect. Regarding `c1ccc(CN2CCC(Nc3nc(N4CCCC4)nc4ccccc34)CC2)cc1` [Compound 10, N-(1-benzylpiperidin-4-yl)-2-(pyrrolidin-1-yl)quinazolin-4-amine], the inhibition at 8 µM in assay [1] turned out to be 9.2%. The IC50 with U-937 cells was determined as 14.7 ± 3.8 µM. In addition, the “fold-induction” value in assay [2] (5 µM) is recorded as 2/3. The “fold-induction” value in assay [2] (25 µM) is reported as “not effective”. At Human G9a, this molecule displayed an inhibition at 0.78 µM of 0.3%, an inhibition at 1.56 µM of 13.4%, an inhibition at 3.1 µM of 14.7% and an inhibition at 6.2 µM of 4.6%. Besides, on Human G9a, 12.5 µM produced 5.9% inhibition, the inhibition at 25 µM was determined as 13%, testing at 50 µM gave an inhibition of 18.6% and the inhibition at 100 µM is 20.8%. Besides, at Human G9a, the inhibition at 200 µM came to 49.5%, at 400 µM the inhibition was 37.8% and the IC50 was over 400 µM. Also, the inhibition at 10 µM on human DNMT1 (hDNMT1) (10 µM compound) is 6.5%. The inhibition at 32 µM at human DNMT1 (hDNMT1) (32 µM compound) came to 18%. In addition, the inhibition at 100 µM at human DNMT1 (hDNMT1) came to 47 ± 1.7%. The EC50 on human DNMT1 (hDNMT1) (means of at least three experiments) was 144 ± 35 µM.

As to `c1ccc(CN2CCC(Nc3nc(N4CCN(c5ccccn5)CC4)nc4ccccc34)CC2)cc1` [Compound 13], the inhibition at 8 µM in assay [1] is 3.3%. The IC50 in the assay on U-937 cells came out at 18.8 ± 1.2 µM. The “fold-induction” value in assay [2] (5 µM) is 2/3. Further, the “fold-induction” value in assay [2] (25 µM) was “not effective”. At Human G9a, the inhibition at 0.78 µM was determined as 9.4%, 1.56 µM produced 21.6% inhibition, the inhibition at 3.1 µM was determined as 11% and testing at 6.2 µM gave an inhibition of 16.7%. Further, on Human G9a, the inhibition at 12.5 µM was 0%, 25 µM produced 11.1% inhibition, at 50 µM the inhibition was 27.2% and at 100 µM the inhibition was 24.9%. At Human G9a, this molecule registered an inhibition at 200 µM of 29.2%, an inhibition at 400 µM of 14% and an IC50 of over 400 µM. Moreover, the inhibition at 100 µM at human DNMT1 (hDNMT1) came to 0%.

Turning to `c1ccc(CN2CCC(Nc3nc(N4CCN(c5ccccc5)CC4)nc4ccccc34)CC2)cc1` [Compound 14, N-(1-benzylpiperidin-4-yl)-2-(4-phenylpiperazin-1-yl)quinazolin-4-amine], the inhibition at 8 µM in assay [1] is 10%. Also, in the assay with U-937 cells, the IC50 came to 4.4 ± 1.4 µM and the “antiproliferative potency compared to SGI-1027, fold less efficient” value came to 2.6 fold. For the same molecule, in assay [2] (5 µM), the “fold-induction” value was 2/3. For the same molecule, the “fold-induction” value in assay [2] (25 µM) stood at 7.5 fold. Further, the “fold-induction” value in assay [2] (50 µM) is “ineffective”. At Human G9a, this molecule displayed an inhibition at 0.78 µM of 17.3%, an inhibition at 1.56 µM of 13.5%, an inhibition at 3.1 µM of 0% and an inhibition at 6.2 µM of 4.2%. On Human G9a, this molecule showed an inhibition at 12.5 µM of 21.3%, an inhibition at 25 µM of 10.6%, an inhibition at 50 µM of 16.5% and an inhibition at 100 µM of 22.4%. On Human G9a, this molecule displayed an inhibition at 200 µM of 23.8%, an inhibition at 400 µM of 24% and an IC50 of over 400 µM. In addition, the inhibition at 100 µM at human DNMT1 (hDNMT1) was 0%.
